Marks after values point to notes of the source that are not given here.
Assays:
Staphylococcus aureus = assay: Colony number in TSO samples at pH 4 with preservatives; assay type: cell-based; settings: 10 000 TSO/ml in phosphate buffer pH 4, 25° C.; for T 1d: 1 day; for T 7d: 7 days
Procedure: (§1) Raising the pH from pH 2 to pH 4 and addition of preservatives Experimental conditions for examples 4a to 4e: […] The following microorganisms were added to the test samples: • Aspergillus niger in the form of an individual microorganism • Pseudomonas aruginosa, Staphylococcus aureus, Candida albicans and Escherichia coli in combination. The incubation temperature was 25° C. The test plates were evaluated after 1 to 7 days.

Candida albicans [1] = assay: as above; assay type: cell-based; settings: 10 000 TSO/ml in phosphate buffer pH 4, 25° C.; for T 1d: 1 day; for T 7d: 7 days
Procedure: as §1

Escherichia coli [2] = assay: as above; assay type: cell-based; settings: 10 000 TSO/ml in phosphate buffer pH 4, 25° C.; for T 1d: 1 day; for T 7d: 7 days
Procedure: as §1

Psuedomonas aeruginosa = assay: as above; assay type: cell-based; settings: 10 000 TSO/ml in phosphate buffer pH 4, 25° C.; for T 1d: 1 day; for T 7d: 7 days
Procedure: as §1

Aspergillus niger [3] = assay: as above; assay type: cell-based; settings: 10 000 TSO/ml in phosphate buffer pH 4, 25° C.; for T 1d: 1 day; for T 7d: 7 days
Procedure: as §1

Candida albicans [4] = assay: Microbial count after H2SO4 treatment of inoculated nutrient suspension (test yeasts); assay type: cell-based
Aspergillus niger [5] = assay: Microbial count after H2SO4 treatment of inoculated nutrient suspension (test molds); assay type: cell-based
Penicillium brevicomp. = assay: as above; assay type: cell-based
Saccharomyces cer. = assay: Microbial count after H2SO4 treatment of inoculated nutrient suspension (test yeasts); assay type: cell-based
Bacillus subtilis = assay: Microbial count after H2SO4 treatment of inoculated nutrient suspension (test bacteria); settings: pH 2, 6 h at 30° C.
Escherichia coli [6] = assay: as above; settings: pH 2, 6 h at 30° C.
feline calicivirus (FCV) = assay type: cell-based; settings: pH 2, 30° C., with TSO; after 3 h
porcine parvovirus (PPV) = assay type: cell-based; settings: pH 2, 30° C., with TSO; after 3 h
[7] = test system: microorganisms in Trichuris suis egg suspension (TSO); assay: Depletion of microorganisms in a T. suis egg suspension (microbial count per DAB 2.6.12); assay type: cell-based; settings: TSO 2400 eggs/ml rebuffered to pH 2; after storage for 3 h at 30° C.
Procedure: The microbial count in a Trichuris suis egg suspension (TSO) in phosphate buffer (pH 7) at a concentration of 2400 eggs/ml was determined as specified in the DAB (German Pharmacopoeia, section 2.6.12, last updated with the 24th Supplement in 2006). […] This suspension was then rebuffered to pH 2 in dilute H2SO4 solution.

Staphylococus aureus = assay: Microbial count after H2SO4 treatment of inoculated nutrient suspension (test bacteria); settings: pH 2, 6 h at 30° C.
Clostridium sporog. = assay: as above; assay type: cell-based; settings: pH 2, 6 h at 30° C.
[8] = test system: murine leukemia virus (MuLV); assay type: cell-based; settings: pH 2, 30° C., with TSO; after 10 min
pseudorabies virus (PRV) = assay type: cell-based; settings: pH 2, 30° C., with TSO; after 10 min
Salmonella typhymurium = assay: Microbial count after H2SO4 treatment of inoculated nutrient suspension (test bacteria); settings: pH 2, 6 h at 30° C.

SMILES	T 1d (Staphylococcus aureus)	T 7d (Staphylococcus aureus) [cfu/ml]	T 0 (Staphylococcus aureus)	T 1d (Candida albicans [1]) [cfu/ml]	T 7d (Candida albicans [1]) [cfu/ml]	T 0 (Candida albicans [1])	T 1d (Escherichia coli [2]) [cfu/ml]	T 7d (Escherichia coli [2]) [cfu/ml]	T 0 (Escherichia coli [2])	T 1d (Psuedomonas aeruginosa) [cfu/ml]	T 7d (Psuedomonas aeruginosa) [cfu/ml]	T 0 (Psuedomonas aeruginosa)	T 1d (Aspergillus niger [3])	T 7d (Aspergillus niger [3]) [cfu/ml]	T 0 (Aspergillus niger [3])	other results
C/C=C/C=C/C(=O)O [Sorbic acid 0.1%, Sorbic acid]	240 cfu/ml	<10	130 000 cfu/ml	190	<10	240 000 cfu/ml	490	<10	140 000 cfu/ml	30	<10	180 000 cfu/ml	20 000 cfu/ml	<10	120 000 cEu/ml	–
O=S(=O)(O)O [H2SO4 pH 1, H2SO4]	–	–	–	–	–	–	–	–	–	–	–	–	–	–	–	microbial count T3h H2SO4 pH 1 (Candida albicans [4]; pH 1, 3 h at 25° C.): 26 000 cfu; microbial count T48h H2SO4 pH 1 (Candida albicans [4]; pH 1, 48 h at 25° C.): <10 cfu; microbial count T3h H2SO4 pH 1 (Aspergillus niger [5]; pH 1, 3 h at 25° C.): 500 000 cfu; microbial count T48h H2SO4 pH 1 (Aspergillus niger [5]; pH 1, 48 h at 25° C.): 500 000 cfu; microbial count T3h H2SO4 pH 1 (Penicillium brevicomp.; pH 1, 3 h at 25° C.): 39 000 cfu; microbial count T48h H2SO4 pH 1 (Penicillium brevicomp.; pH 1, 48 h at 25° C.): 14 000 cfu; microbial count T3h H2SO4 pH 1 (Saccharomyces cer.; pH 1, 3 h at 25° C.): 39 000 cfu; microbial count T48h H2SO4 pH 1 (Saccharomyces cer.; pH 1, 48 h at 25° C.): 40* cfu
CC(O)CO (stereo not shown) [Propylene glycol 15%, Propylene glycol]	14 000 cfu/ml	<10	130 000 cfu/ml	8600	30	240 000 cfu/ml	7100	<10	140 000 cfu/ml	10	<10	180 000 cfu/ml	30 000 cfu/ml	9000	120 000 cEu/ml	–
O=S(=O)(O)O [H2SO4 pH 2, H2SO4]	–	–	–	–	–	–	–	–	–	–	–	–	–	–	–	microbial count T3h H2SO4 pH 2 (Candida albicans [4]; pH 2, 3 h at 25° C.): 380 000 cfu; microbial count T48h H2SO4 pH 2 (Candida albicans [4]; pH 2, 48 h at 25° C.): 32 000 cfu; microbial count T3h H2SO4 pH 2 (Aspergillus niger [5]; pH 2, 3 h at 25° C.): 370 000 cfu; microbial count T48h H2SO4 pH 2 (Aspergillus niger [5]; pH 2, 48 h at 25° C.): 700 000 cfu; microbial count T3h H2SO4 pH 2 (Penicillium brevicomp.; pH 2, 3 h at 25° C.): 90 000 cfu; microbial count T48h H2SO4 pH 2 (Penicillium brevicomp.; pH 2, 48 h at 25° C.): 32 000 cfu; microbial count, H2SO4 pH 2 after 6 h (Bacillus subtilis): 20* colony-forming units; microbial count, H2SO4 pH 2 after 6 h (Escherichia coli [6]): <10 colony-forming units; viral activity (feline calicivirus (FCV)): no longer infectious; viral activity (porcine parvovirus (PPV)): no longer infectious; microbial count [7]: < 20 cfu/ml; microbial count T3h H2SO4 pH 2 (Saccharomyces cer.; pH 2, 3 h at 25° C.): 380 000 cfu; microbial count T48h H2SO4 pH 2 (Saccharomyces cer.; pH 2, 48 h at 25° C.): 220 000 cfu; microbial count, H2SO4 pH 2 after 6 h (Staphylococus aureus): <10 colony-forming units; microbial count, H2SO4 pH 2 after 6 h (Clostridium sporog.): <10 colony-forming units; viral activity [8]: no longer infectious; viral activity (pseudorabies virus (PRV)): no longer infectious; microbial count, H2SO4 pH 2 after 6 h (Salmonella typhymurium): <10 colony-forming units
O=C(O)c1ccccc1 [Benzoic acid 0.2%, Benzoic acid]	<10 cfu/ml	<10	130 000 cfu/ml	<10	<10	240 000 cfu/ml	<10	<10	140 000 cfu/ml	<10	<10	180 000 cfu/ml	90 cfu/ml	<10	120 000 cEu/ml	–
O=S(=O)(O)O [H2SO1 pH 0, H2SO4]	–	–	–	–	–	–	–	–	–	–	–	–	–	–	–	microbial count T3h H2SO1 pH 0 (Aspergillus niger [5]; pH 0, 3 h at 25° C.): 50 cfu; microbial count T48h H2SO1 pH 0 (Aspergillus niger [5]; pH 0, 48 h at 25° C.): <10 cfu; microbial count T3h H2SO1 pH 0 (Penicillium brevicomp.; pH 0, 3 h at 25° C.): 70 cfu; microbial count T48h H2SO1 pH 0 (Penicillium brevicomp.; pH 0, 48 h at 25° C.): <10 cfu
[K+].[K+].[O]=[Cr](=[O])([O-])[O][Cr](=[O])(=[O])[O-] [potassium dichromate]	–	–	–	–	–	–	–	–	–	–	–	–	–	–	–	cytotoxicity (indicator cells): cytotoxicity
